Data as given in patent publication US5344821A, “Pheromonostatic peptide used to disrupt mating of the corn earworm, helicoverpa zea” (The United States of America, as represented by the …, priority 1993, dated 1994).
Where a name gives a salt, the structure may show the parent alone.

What was measured:
corn earworm moths = conditions: cited from earlier work
tobacco budworm moths = conditions: cited from earlier work
H. zea males [1] = conditions: field experiments, sticky or electric grid traps; cited from earlier work
H. zea males [2] = conditions: caged males; cited from earlier work
H. zea females = experiment: Bioassay: pheromone content of ligated, PBAN-injected females after a second injection with the isolated material; format: in vivo, Helicoverpa zea
Procedure: The activity of the two peptides was evaluated by bioassay. Females were first ligated between head & thorax to remove their own source of PBAN; they were then injected with PBAN to stimulate pheromone biosynthesis, followed by a later injection with the isolated material.
Females in their 1st or 2nd photophase after emergence are ligated between the head and thorax with silk thread. The following morning, approximately 16 hours later, the females are injected with 2 picomoles of the pheromonotropic peptide PBAN. One hour later, they are injected a second time with fractionated material obtained as described supra. Two hours later, the tip of the abdomen (at the 7th abdominal segment), containing the ovipositor and the glandular tissue producing sex pheromone, is excised and extracted with 5-15 μl heptane The amount of the major component of sex pheromone, Z-11-hexadecenal, is quantified by gas chromatography. Females receiving saline (control) at the second injection typically contain 50-150 nanograms pheromone in the extract while females having been injected with the peptides extracted from the male reproductive tract are found to have 1-5 nanograms.

female H. zea = experiment: Depletion of female sex pheromone after transfer of the polypeptide during mating; format: in vivo, Helicoverpa zea
Procedure: This invention relates to a polypeptide which is transferred from the male corn earworm moth to the female during mating. After transfer, a decline in the production of sex pheromone is observed for at least 24 hours and the female becomes unattractive to males over that period of time. A continued presence of this peptide within the female serves as an effective means of insect control by rendering it permanently unattractive. The peptide is also useful in the study of insect physiology.
Non-volatile chemicals may also trigger behavioral changes. As described above, the neuropeptide PBAN initiates pheromone biosynthesis. In addition, another polypeptide, pheromonostatic peptide (PSP) is produced in the reproductive tract of male H. zea and is transferred with spermatozoa to the female during mating.

## CCCC/C=C\CCCCCCCCOC=O [(Z)-9-TDF, (Z)-9-tetradecen-1-ol formate]
Corn earworm moths
  reduction of mating: effective in reducing mating
Tobacco budworm moths
  reduction of mating: effective in reducing mating

## CCCC/C=C\CCCCCCCCCC=O [Z-11-hexadecenal]
H. zea males [1]
  catch of males in traps in the presence of the compound: inhibited
H. zea males [2]
  sex stimulation activity: strong sex stimulation activity

## PSP: basic, 57-amino acid peptide, 6615 daltons, one disulfide, pyro-Glu N-terminus, amidated C-terminus, from male H. zea accessory glands and duplex
H. zea females; ligated females injected with PBAN, then with the isolated material
  pheromone accumulation with versus without PSP injection: females receiving no PSP typically accumulated pheromone in much higher amounts than those having been injected with PSP
H. zea females; ligated females, 2 picomoles PBAN, test material injected 1 hour later, gland excised 2 hours later, gas chromatography, saline control 50-150 nanograms
  amount of Z-11-hexadecenal (major component of sex pheromone) in the ovipositor/gland extract: 1-5 nanograms
Female H. zea; after transfer during mating
  duration of the pheromone depletion: at least 24 hours
Female H. zea; transferred with spermatozoa from male to female during mating
  effect on female sex pheromone after transfer at mating: causes a depletion of the sex pheromone
